# Results published in US12501917B2, “Methods and compositions for treating intestinal disorder” (MARS, INCORPORATED, priority 2019, dated 2025).
# System: canine fecal microbiome
# Conditions: dog, in vivo
structure (smiles),measurement,value
Cc1ncc([N+](=O)[O-])n1CCO [metronidazole],"dysbiosis (community evenness, distance from healthy controls, potential pathogens)",exacerbated dysbiosis
